Experimental findings from patent US4242510A, “Cephalosporin compounds and processes for the preparation thereof” (Fujisawa Pharmaceutical Co., Ltd., priority 1976, dated 1980) are described below.

Assay in all cases: In vitro antibacterial activity, two-fold agar-plate dilution method
What all share (format): cell-based

One assay relates to Esherichia coli 327. The following applies: HI-agar, 37° C., 20 hours. How it is done: (§1) In vitro antibacterial activity was determined by the two-fold agar-plate dilution method as described below. One loopful of an overnight culture of each test strain in Trypticase-soy broth (approximately 10^6 viable cells per ml.) was streaked on heat infusion agar (HI-agar) containing graded concentrations of antibiotics, and the minimal inhibitory concentration (MIC) was expressed in terms of μg./ml. after incubation at 37° C. for 20 hours.

A further assay concerns Proteus mirabilis 525. The following applies: HI-agar, 37° C., 20 hours. As to the method:
as §1

Assay [1] relates to Proteus vulgaris LAM-1025. The following applies: LAM1025, HI-agar, 37° C., 20 hours. How it is done:
as §1

Assay [2] has as its system Pseudmonas aeruginose NCTC-10490. The following applies: HI-agar, 37° C., 20 hours. As to the method: as §1
The test system of assay [3] is Staphylococcus aureus 209-P JC-1. The following applies: HI-agar, 37° C., 20 hours. As to the method: as §1

Molecules are shown by their SMILES. ≈ marks a conversion by molar mass, not a printed value.

Turning to `CO/N=C(\C(=O)NC1C(=O)N2C(C(=O)O)=C(COC(C)=O)CSC12)C1=CSCCO1` (centres unmarked) [compound 1, 7-[2-(2,3-dihydro-1,4-oxathiin-6-yl)-2-methoxyiminoacetamido]cephalosporanic acid], the minimal inhibitory concentration (MIC) (in general, the lowest concentration that inhibits growth of the organism) with Esherichia coli 327 turned out to be 0.78 µg/mL (≈ 1.7 µM); against Proteus mirabilis 525, 0.78 µg/mL (≈ 1.7 µM); in assay [1] it was 12.5 µg/mL (≈ 27.3 µM); in assay [2] it was 25 µg/mL (≈ 54.6 µM); in assay [3], 3.13 µg/mL (≈ 6.84 µM).

Turning to `CON=C(C(=O)NC1C(=O)N2C(C(=O)O)=C(CSc3nnnn3C)CS[C@H]12)C1=CSCCO1` (some centres unmarked) [compound 2, 7-[2-(2,3-dihydro-1,4-oxathiin-6-yl)-2-methoxyiminoacetamido]-3-(1-methyl-1H-tetrazol-5-yl)thiomethyl-3-cephem-4-carboxylic acid], the MIC is 0.2 µg/mL (≈ 0.389 µM) in the assay on Esherichia coli 327; 0.78 µg/mL (≈ 1.52 µM) against Proteus mirabilis 525; 25 µg/mL (≈ 48.7 µM) in assay [1]; 12.5 µg/mL (≈ 24.3 µM) in assay [2]; 3.13 µg/mL (≈ 6.09 µM) in assay [3].

As for `CON=C(C(=O)NC1C(=O)N2C(C(=O)O)=C(COC(N)=O)CS[C@H]12)C1=CSCCO1` (some centres unmarked) [compound 3, 7-[2-(2,3-dihydro-1,4-oxathiin-6-yl)-2-methoxyiminoacetamido]-3-carbamoyloxymethyl-3-cephem-4-carboxylic acid], the MIC in the assay on Esherichia coli 327 stood at 0.78 µg/mL (≈ 1.7 µM); against Proteus mirabilis 525 it was 0.78 µg/mL (≈ 1.7 µM); in assay [1], 100 µg/mL (≈ 218 µM); in assay [2] it was 50 µg/mL (≈ 109 µM); in assay [3], 6.25 µg/mL (≈ 13.6 µM).

`CON=C(C(=O)NC1C(=O)N2C(C(=O)O)=C(CSc3nncs3)CS[C@H]12)C1=CSCCS1` (some centres unmarked) [compound 4, 7-[2-(2,3-dihydro-1,4-dithiin-5-yl)2-methoxyiminoacetamido]-3-(1,3,4-thiadiazol-2-yl)thiomethyl-3-cephem-4-carboxylic acid]: the minimum inhibitory concentration (MIC) turned out to be 0.78 µg/mL (≈ 1.47 µM) in the assay on Esherichia coli 327; 3.13 µg/mL (≈ 5.89 µM) with Proteus mirabilis 525; 6.25 µg/mL (≈ 11.8 µM) in assay [1]; 50 µg/mL (≈ 94 µM) in assay [2]; 0.39 µg/mL (≈ 0.734 µM) in assay [3].

In the case of `CON=C(C(=O)NC1C(=O)N2C(C(=O)O)=CCS[C@H]12)C1=CSCCS1` (some centres unmarked) [compound 5, 7-[2-(2,3-dihydro-1,4-dithiin-5-yl)-2-methoxyiminoacetamido]-3-cephem-4-carboxylic acid], the MIC in assay [1] was determined as 3.13 µg/mL (≈ 7.8 µM); in assay [2], 400 µg/mL (≈ 996 µM); in assay [3], 6.25 µg/mL (≈ 15.6 µM).
